Test results published in patent publication US10167262B2, “Herbicidal substituted 3-arylpyrazoles” (FMC CORPORATION, priority 2014, dated 2019).

Key:
Experiment in all cases: Test E pre-/postemergence greenhouse test, plant response rating 0-100
Format in all cases: in vivo
[1] = system: field bindweed (Convolvulus arvensis); conditions: scale 0 to 100; for Field Bindweed plant response rating: Preemergence
In short: (§1)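 Ratings (0 no effect to 100 complete control) came from visual comparison with untreated controls 14 to 21 days after treatment. Compounds in a surfactant-containing non-phytotoxic solvent were applied preemergence to seeded silt loam and postemergence to plants at the 1- to 4-leaf stage.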

[2] = system: dayflower (Virginia (VA) dayflower, Commelina virginica); conditions: scale 0 to 100; for Dayflower, VA plant response rating: Preemergence
In short: as §1

[3] = system: arrowleaf sida (Sida rhombifolia); conditions: for Arrowleaf Sida plant response rating: Preemergence
In short: as §1

[4] = system: Brazilian crabgrass (Digitaria horizontalis); conditions: scale 0 to 100; for Crabgrass, Brazil plant response rating: Preemergence
In short: as §1

[5] = system: Italian ryegrass (Lolium multiflorum); conditions: scale 0 to 100; for Ryegrass, Italian plant response rating: Preemergence
In short: as §1

[6] = system: waterhemp (common waterhemp, Amaranthus rudis); conditions: scale 0 to 100; for Waterhemp plant response rating: Preemergence
In short: as §1

[7] = system: barnyardgrass (Echinochloa crus-galli); conditions: scale 0 to 100; for Barnyardgrass plant response rating: Preemergence
In short: as §1

[8] = system: palmer pigweed (Amaranthus palmeri); conditions: scale 0 to 100; for Pigweed, Palmer plant response rating: Preemergence
In short: as §1

corn (Zea mays) = conditions: scale 0 to 100; for Corn plant response rating: Preemergence
In short: as §1

[9] = system: sandbur (southern sandbur, Cenchrus echinatus); conditions: scale 0 to 100; for Sandbur plant response rating: Preemergence
In short: as §1

[10] = system: hairy beggarticks (Bidens pilosa); conditions: scale 0 to 100; for Beggarticks plant response rating: Preemergence
In short: as §1

[11] = system: wild poinsettia (Euphorbia heterophylla); conditions: scale 0 to 100; for Poinsettia, Wild plant response rating: Preemergence
In short: as §1

SMILES: C#CCn1cc(C(=O)c2ccccc2)c(-c2cc(Cl)cc(Cl)c2)n1 [Compound 39, [3-(3,5-dichlorophenyl)-1-(2-propyn-1-yl)-1H-pyrazol-4-yl]phenylmethanone]
- pest or weed control at 31 g/ha ([1]; Convolvulus arvensis, post-emergence, Postemergence, 31 g ai/ha): 0%
- pest or weed control at 62 g/ha ([1]; Convolvulus arvensis, post-emergence, Postemergence, 62 g ai/ha): 0%
- pest or weed control at 125 g/ha ([1]; Convolvulus arvensis, post-emergence, Postemergence, 125 g ai/ha): 0%
- pest or weed control at 250 g/ha ([1]; Convolvulus arvensis, post-emergence, Postemergence, 250 g ai/ha): 10%
- pest or weed control at 500 g/ha ([1]; Convolvulus arvensis, post-emergence, Postemergence, 500 g ai/ha): 10%
- Field Bindweed plant response rating ([1]; 62 g ai/ha): 0
- Field Bindweed plant response rating ([1]; 125 g ai/ha): 0
- Field Bindweed plant response rating ([1]; 250 g ai/ha): 0
- Field Bindweed plant response rating ([1]; 500 g ai/ha): 0
- pest or weed control at 31 g/ha ([2]; Commelina virginica, post-emergence, Postemergence, 31 g ai/ha): 0%
- pest or weed control at 62 g/ha ([2]; Commelina virginica, post-emergence, Postemergence, 62 g ai/ha): 0%
- pest or weed control at 125 g/ha ([2]; Commelina virginica, post-emergence, Postemergence, 125 g ai/ha): 0%
- pest or weed control at 250 g/ha ([2]; Commelina virginica, post-emergence, Postemergence, 250 g ai/ha): 0%
- pest or weed control at 500 g/ha ([2]; Commelina virginica, post-emergence, Postemergence, 500 g ai/ha): 0%
- Dayflower, VA plant response rating ([2]; 62 g ai/ha): 0
- Dayflower, VA plant response rating ([2]; 125 g ai/ha): 0
- Dayflower, VA plant response rating ([2]; 250 g ai/ha): 0
- Dayflower, VA plant response rating ([2]; 500 g ai/ha): 0
- Arrowleaf Sida plant response rating ([3]; 62 g ai/ha, scale 0 to 100): 0
- Arrowleaf Sida plant response rating ([3]; 125 g ai/ha, scale 0 to 100): 90
- Arrowleaf Sida plant response rating ([3]; 250 g ai/ha, scale 0 to 100): 95
- Arrowleaf Sida plant response rating ([3]; 500 g ai/ha, scale 0 to 100): 95
- pest or weed control at 31 g/ha ([3]; Sida rhombifolia, post-emergence, Postemergence, 31 g ai/ha, scale 0 to 100): 75%
- pest or weed control at 62 g/ha ([3]; Sida rhombifolia, post-emergence, Postemergence, 62 g ai/ha, scale 0 to 100): 80%
- pest or weed control at 125 g/ha ([3]; Sida rhombifolia, post-emergence, Postemergence, 125 g ai/ha, scale 0 to 100): 85%
- pest or weed control at 250 g/ha ([3]; Sida rhombifolia, post-emergence, Postemergence, 250 g ai/ha, scale 0 to 100): 90%
- pest or weed control at 500 g/ha ([3]; Sida rhombifolia, post-emergence, Postemergence, 500 g ai/ha, scale 0 to 100 (0 no effect, 100 complete control)): 90%
- pest or weed control at 31 g/ha ([4]; Digitaria horizontalis, post-emergence, Postemergence, 31 g ai/ha, read-out: Plant response rating, Crabgrass, Brazil): 0%
- pest or weed control at 62 g/ha ([4]; Digitaria horizontalis, post-emergence, Postemergence, 62 g ai/ha, read-out: Plant response rating, Crabgrass, Brazil): 0%
- pest or weed control at 125 g/ha ([4]; Digitaria horizontalis, post-emergence, Postemergence, 125 g ai/ha, read-out: Plant response rating, Crabgrass, Brazil): 0%
- pest or weed control at 250 g/ha ([4]; Digitaria horizontalis, post-emergence, Postemergence, 250 g ai/ha, read-out: Plant response rating, Crabgrass, Brazil): 0%
- pest or weed control at 500 g/ha ([4]; Digitaria horizontalis, post-emergence, Postemergence, 500 g ai/ha, read-out: Plant response rating, Crabgrass, Brazil): 5%
- Crabgrass, Brazil plant response rating ([4]; 62 g ai/ha): 0
- Crabgrass, Brazil plant response rating ([4]; 125 g ai/ha): 0
- Crabgrass, Brazil plant response rating ([4]; 250 g ai/ha): 0
- Crabgrass, Brazil plant response rating ([4]; 500 g ai/ha): 0
- pest or weed control at 31 g/ha ([5]; Lolium multiflorum, post-emergence, Postemergence, 31 g ai/ha): 0%
- pest or weed control at 62 g/ha ([5]; Lolium multiflorum, post-emergence, Postemergence, 62 g ai/ha): 0%
- pest or weed control at 125 g/ha ([5]; Lolium multiflorum, post-emergence, Postemergence, 125 g ai/ha): 0%
- pest or weed control at 250 g/ha ([5]; Lolium multiflorum, post-emergence, Postemergence, 250 g ai/ha): 0%
- pest or weed control at 500 g/ha ([5]; Lolium multiflorum, post-emergence, Postemergence, 500 g ai/ha): 0%
- Ryegrass, Italian plant response rating ([5]; 62 g ai/ha): 0
- Ryegrass, Italian plant response rating ([5]; 125 g ai/ha): 0
- Ryegrass, Italian plant response rating ([5]; 250 g ai/ha): 0
- Ryegrass, Italian plant response rating ([5]; 500 g ai/ha): 0
- pest or weed control at 31 g/ha ([6]; Amaranthus tuberculatus, post-emergence, Postemergence, 31 g ai/ha): 80%
- pest or weed control at 125 g/ha ([6]; Amaranthus tuberculatus, post-emergence, Postemergence, 125 g ai/ha): 90%
- pest or weed control at 250 g/ha ([6]; Amaranthus tuberculatus, post-emergence, Postemergence, 250 g ai/ha): 95%
- pest or weed control at 500 g/ha ([6]; Amaranthus tuberculatus, post-emergence, Postemergence, 500 g ai/ha): 98%
- Waterhemp plant response rating ([6]; 62 g ai/ha): 85
- Waterhemp plant response rating ([6]; 125 g ai/ha): 95
- Waterhemp plant response rating ([6]; 250 g ai/ha): 100
- Waterhemp plant response rating ([6]; 500 g ai/ha): 100
- pest or weed control at 31 g/ha ([7]; Echinochloa crus-galli, post-emergence, Postemergence, 31 g ai/ha): 0%
- pest or weed control at 62 g/ha ([7]; Echinochloa crus-galli, post-emergence, Postemergence, 62 g ai/ha): 0%
- pest or weed control at 125 g/ha ([7]; Echinochloa crus-galli, post-emergence, Postemergence, 125 g ai/ha): 0%
- pest or weed control at 250 g/ha ([7]; Echinochloa crus-galli, post-emergence, Postemergence, 250 g ai/ha): 0%
- pest or weed control at 500 g/ha ([7]; Echinochloa crus-galli, post-emergence, Postemergence, 500 g ai/ha): 10%
- Barnyardgrass plant response rating ([7]; 62 g ai/ha): 0
- Barnyardgrass plant response rating ([7]; 125 g ai/ha): 0
- Barnyardgrass plant response rating ([7]; 250 g ai/ha): 0
- Barnyardgrass plant response rating ([7]; 500 g ai/ha): 0
- pest or weed control at 31 g/ha ([8]; Amaranthus palmeri, post-emergence, Postemergence, 31 g ai/ha): 70%
- pest or weed control at 62 g/ha ([8]; Amaranthus palmeri, post-emergence, Postemergence, 62 g ai/ha): 80%
- pest or weed control at 125 g/ha ([8]; Amaranthus palmeri, post-emergence, Postemergence, 125 g ai/ha): 80%
- pest or weed control at 250 g/ha ([8]; Amaranthus palmeri, post-emergence, Postemergence, 250 g ai/ha): 85%
- pest or weed control at 500 g/ha ([8]; Amaranthus palmeri, post-emergence, Postemergence, 500 g ai/ha): 98%
- Pigweed, Palmer plant response rating ([8]; 62 g ai/ha): 20
- Pigweed, Palmer plant response rating ([8]; 125 g ai/ha): 50
- Pigweed, Palmer plant response rating ([8]; 250 g ai/ha): 90
- Pigweed, Palmer plant response rating ([8]; 500 g ai/ha): 85
- Corn plant response rating (corn (Zea mays); 62 g ai/ha): 0
- Corn plant response rating (corn (Zea mays); 125 g ai/ha): 0
- Corn plant response rating (corn (Zea mays); 250 g ai/ha): 0
- Corn plant response rating (corn (Zea mays); 500 g ai/ha): 0
- Corn plant response rating (crop injury, 0 = no effect, 100 = complete kill) at 31 g/ha (corn (Zea mays); Zea mays, post-emergence, Postemergence, 31 g ai/ha): 0%
- Corn plant response rating (crop injury, 0 = no effect, 100 = complete kill) at 62 g/ha (corn (Zea mays); Zea mays, post-emergence, Postemergence, 62 g ai/ha): 0%
- Corn plant response rating (crop injury, 0 = no effect, 100 = complete kill) at 125 g/ha (corn (Zea mays); Zea mays, post-emergence, Postemergence, 125 g ai/ha): 0%
- Corn plant response rating (crop injury, 0 = no effect, 100 = complete kill) at 250 g/ha (corn (Zea mays); Zea mays, post-emergence, Postemergence, 250 g ai/ha): 0%
- Corn plant response rating (crop injury, 0 = no effect, 100 = complete kill) at 500 g/ha (corn (Zea mays); Zea mays, post-emergence, Postemergence, 500 g ai/ha): 0%
- pest or weed control at 31 g/ha ([9]; Cenchrus echinatus, post-emergence, Postemergence, 31 g ai/ha): 0%
- pest or weed control at 62 g/ha ([9]; Cenchrus echinatus, post-emergence, Postemergence, 62 g ai/ha): 0%
- pest or weed control at 125 g/ha ([9]; Cenchrus echinatus, post-emergence, Postemergence, 125 g ai/ha): 0%
- pest or weed control at 250 g/ha ([9]; Cenchrus echinatus, post-emergence, Postemergence, 250 g ai/ha): 0%
- pest or weed control at 500 g/ha ([9]; Cenchrus echinatus, post-emergence, Postemergence, 500 g ai/ha): 0%
- Sandbur plant response rating ([9]; 62 g ai/ha): 0
- Sandbur plant response rating ([9]; 125 g ai/ha): 0
- Sandbur plant response rating ([9]; 250 g ai/ha): 0
- Sandbur plant response rating ([9]; 500 g ai/ha): 0
- pest or weed control at 31 g/ha ([10]; Bidens pilosa, post-emergence, Postemergence, 31 g ai/ha): 80%
- pest or weed control at 62 g/ha ([10]; Bidens pilosa, post-emergence, Postemergence, 62 g ai/ha): 85%
- pest or weed control at 125 g/ha ([10]; Bidens pilosa, post-emergence, Postemergence, 125 g ai/ha): 90%
- pest or weed control at 250 g/ha ([10]; Bidens pilosa, post-emergence, Postemergence, 250 g ai/ha): 95%
- pest or weed control at 500 g/ha ([10]; Bidens pilosa, post-emergence, Postemergence, 500 g ai/ha): 95%
- Beggarticks plant response rating ([10]; 62 g ai/ha): 0
- Beggarticks plant response rating ([10]; 125 g ai/ha): 0
- Beggarticks plant response rating ([10]; 250 g ai/ha): 0
- Beggarticks plant response rating ([10]; 500 g ai/ha): 0
- pest or weed control at 31 g/ha ([11]; Euphorbia heterophylla, post-emergence, Postemergence, 31 g ai/ha, read-out: Plant response rating, Poinsettia, Wild): 0%
- pest or weed control at 62 g/ha ([11]; Euphorbia heterophylla, post-emergence, Postemergence, 62 g ai/ha, read-out: Plant response rating, Poinsettia, Wild): 0%
- pest or weed control at 125 g/ha ([11]; Euphorbia heterophylla, post-emergence, Postemergence, 125 g ai/ha, read-out: Plant response rating, Poinsettia, Wild): 0%
- pest or weed control at 250 g/ha ([11]; Euphorbia heterophylla, post-emergence, Postemergence, 250 g ai/ha, read-out: Plant response rating, Poinsettia, Wild): 0%
- pest or weed control at 500 g/ha ([11]; Euphorbia heterophylla, post-emergence, Postemergence, 500 g ai/ha, read-out: Plant response rating, Poinsettia, Wild): 10%
- Poinsettia, Wild plant response rating ([11]; 62 g ai/ha): 0
- Poinsettia, Wild plant response rating ([11]; 125 g ai/ha): 0
- Poinsettia, Wild plant response rating ([11]; 250 g ai/ha): 0
- Poinsettia, Wild plant response rating ([11]; 500 g ai/ha): 0
